Data on 2 compounds can be found in patent publication US4347319A, “Microbiological epoxidation process” (priority 1980, dated 1982).

Common to all, as to format: cell-based
The test system of assay [1] is Methylocystis parvus (CRL 18 PM4) NRRL B-11,204. Kind of assay: Oxidation by washed cell suspensions of methane-grown cells. The method, then:
(§1) The pH of the nutrient medium was adjusted to 7.0 by the addition of acid or base and 50 ml samples of the nutrient medium were charged into a plurality of 300 ml shaker flasks. The shaker flasks were inoculated with an inoculating loop of cells from an agar plate containing homogeneous colonies of the microorganisms on the plate (the purity of the isolates was confirmed by microscopic examination. The isolates had been maintained on agar plates under an atmosphere of methane and air having a 1:1 v/v gas ratio which had been transferred evey two weeks. The gaseous phase of the inoculated flasks was then replaced with a gas mixture comprised of methane and air having a ratio of 1:1 on a v/v basis. The inoculated flasks were sealed air tight and were incubated on a rotary shaker of orbital radius 2.5 cm at 250 rpm and at 30° C. for two days until turbidity in the medium had developed.
(§2) The cells were harvested by centrifugation at 10,000×g. at 4° C. for 30 minutes. The cell pellet was washed twice with a 0.15 M phosphate buffer at a pH of 7.0 (containing 0.002 M MgCl2). The washed cells were then suspended in a 0.15 M phosphate buffer at pH 7.0.
(§3) A 0.5 ml sample of each washed cell suspension (2 mg cells) was put into 10 ml vials at 4° C. which were sealed with a rubber cap. The gaseous phase of the vials was removed with vacuum and then was replaced with a gas mixture of the oxidative substrate (e.g., methane) and oxygen at a 1:1 v/v ratio. The vials were then incubated at 30 ° C. on a rotary shaker at 300 rpm. Samples of product (3 μl) were withdrawn periodically with a microsyringe and the products were analyzed by gas chromatography (ionization flame detector column).
(§4) The newly discovered and isolated microorganism strains of the present invention were each grown aerobically in the presence of methane in the manner described above. The methane-grown microbial cells were then washed, recovered and put to use in oxidizing an oxidative substrate by the procedure described above except in the case of a liquid substrate 10 μl of the substrate were used.

Assay [2] concerns Methylobacter bovis (CRL M1Y) NRRL B-11,216. The assay is described as above. The conditions noted are these: methane-grown washed cells, 30° C.; methane to methanol, alkene to 1,2-epoxide. The method, then: as §1, with “The inoculated flasks were sealed air tight and were incubated on a rotary shaker of orbital radius 2.5 cm at 250 rpm and at 30° C. for two days until turbidity in the medium had developed.” left out
as §2, §3, §4

Assay [3] relates to Methylomonas rosaceus (CRL M10P) NRRL B-11,212. The method, then:
as §1, §2, §3, §4

The subject of assay [4] is Methylococcus capsulatus (CRL 25 PM13) NRRL B-11,221. Kind of assay: Oxidation by washed cell suspensions of methane-grown cells. As to conditions: methane-grown washed cells, 30° C.; methane to methanol, alkene to 1,2-epoxide. The method, then:
as §1, §2, §3, §4

Assay [5] deals with Methylomonas methanica (CRL M4P) NRRL B-11,205. The description is as above. As to conditions: methane-grown washed cells, 30° C.; methane to methanol, alkene to 1,2-epoxide. The method, then:
as §1, §2, §3, §4

For assay [6], the system named is Methylobacter bovis (CRL 19 PM5) NRRL B-11,217. The description is as above. As to conditions: methane-grown washed cells, 30° C.; methane to methanol, alkene to 1,2-epoxide. The method, then:
as §1, §2, §3, §4

The subject of assay [7] is Methylobacter chroococcum (CRL 23 PM8) NRRL B-11,215. The description is as above. The conditions noted are these: methane-grown washed cells, 30° C.; methane to methanol, alkene to 1,2-epoxide. The method, then:
as §1, §2, §3, §4

The subject of assay [8] is Methylomonas rubrum (CRL M6P) NRRL B-11,210. Described as above. The conditions noted are these: methane-grown washed cells, 30° C.; methane to methanol, alkene to 1,2-epoxide. The method, then:
as §1, §2, §3, §4

The subject of assay [9] is Methylomonas albus (CRL M8Y) NRRL B-11,207. The description is as above. As to conditions: methane-grown washed cells, 30° C.; methane to methanol, alkene to 1,2-epoxide. The method, then:
as §1, §2, §3, §4

Assay [10] concerns Methylosinus sporium (CRL 16 PM2) NRRL B-11,203. Described as above. The conditions noted are these: methane-grown washed cells, 30° C.; methane to methanol, alkene to 1,2-epoxide. The method, then:
as §1, §2, §3, §4

Assay [11] relates to Methylomonas agile (CRL 22 PM9) NRRL B-11,209. The description is as above. As to conditions: methane-grown washed cells, 30° C.; methane to methanol, alkene to 1,2-epoxide. The method, then:
as §1, §2, §3, §4

The test system of assay [12] is Methylomonas rosaceus (CRL M7P) NRRL B-11,213. The description is as above. The conditions noted are these: 30° C., methane to methanol, alkene to 1,2-epoxide. The method, then:
as §1, §2, §3, §4

Assay [13] relates to Methylobacterium organophilum (CRL 26 R6) NRRL B-11,222. The assay is described as above. The conditions noted are these: methane-grown washed cells, 30° C.; methane to methanol, alkene to 1,2-epoxide. The method, then:
as §1, §2, §3, §4

For assay [14], the system named is Methylococcus capsulatus (CRL M1) NRRL B-11,219. Described as above. As to conditions: methane-grown washed cells, 30° C.; methane to methanol, alkene to 1,2-epoxide. The method, then:
as §1, §2, §3, §4

In assay [15] the test system is Methylomonas streptobacterium (CRL 17 PM3) NRRL B-11,208. Described as above. The conditions noted are these: methane-grown washed cells, 30° C.; methane to methanol, alkene to 1,2-epoxide. The method, then:
as §1, §2, §3, §4

Assay [16] deals with Methylococcus minimus (CRL 24 PM12) NRRL B-11,220. The assay is described as above. As to conditions: methane-grown washed cells, 30° C.; methane to methanol, alkene to 1,2-epoxide. The method, then:
as §1, §2, §3, §4

The test system of assay [17] is Methylobacter chroococcum (CRL M6) NRRL B-11,214. The description is as above. The conditions noted are these: methane-grown washed cells, 30° C.; methane to methanol, alkene to 1,2-epoxide. The method, then:
as §1, §2, §3, §4

The test system of assay [18] is Methylobacter vinelandii (CRL M5Y) NRRL B-11,218. The assay is described as above. As to conditions: methane-grown washed cells, 30° C.; methane to methanol, alkene to 1,2-epoxide. The method, then:
as §1, §2, §3, §4

Assay [19] concerns Methylosinus trichosporium (CRL 15 PM1) NRRL B-11,202. The description is as above. As to conditions: methane-grown washed cells, 30° C.; methane to methanol, alkene to 1,2-epoxide. The method, then:
as §1, §2, §3, §4

Assay [20] has as its system Methylomonas rubrum (CRL 20 PM6) NRRL B-11,211. Described as above. The conditions noted are these: methane-grown washed cells, 30° C.; methane to methanol, alkene to 1,2-epoxide. The method, then:
as §1, §2, §3, §4

Assay [21] has as its system Methylomonas methanica (CRL 21 PM7) NRRL B-11,206. The assay is described as above. The conditions noted are these: methane-grown washed cells, 30° C.; methane to methanol, alkene to 1,2-epoxide. The method, then: as §1, §2, §3, §4

In the case of `CCC(C)=O` [Butanone], the “Conversion Rate to Ketone” value in [1] (methane-grown cells, product 2-butanone) is listed as 1.0 μmoles/hr/mg Protein.
`C=C` [Ethylene]: the “Oxidative Conversion Rates” value in assay [2] is given as 0.64 μmole/hr/mg protein; in [3], 4.7; in assay [4] it was 0.8 μmole/hr/mg protein; in [5], 1.0 μmole/hr/mg protein; in [6], 1.3 μmole/hr/mg protein; in assay [7], 1.2 μmole/hr/mg protein. The “Oxidative Conversion Rates” value in assay [8] is recorded as 0.7 μmole/hr/mg protein; in [9], 1.8 μmole/hr/mg protein; in assay [10] it was 1.3 μmole/hr/mg protein; in [11], 2.2 μmole/hr/mg protein; in [12] it was 2.9 μmole/hr/mg protein; in [13], 0.9 μmole/hr/mg protein. Also, the “Oxidative Conversion Rates” value in assay [14] came to 5.7 μmole/hr/mg protein; in [15], 0.7 μmole/hr/mg protein; in assay [16] it was 1.2 μmole/hr/mg protein; in [1] (methane-grown washed cells, 30° C., methane to methanol, alkene to 1,2-epoxide), 0.9 μmole/hr/mg protein; in [17], 1.6 μmole/hr/mg protein; in [18], 1.2 μmole/hr/mg protein. Moreover, the “Oxidative Conversion Rates” value came to 2.5 μmole/hr/mg protein in assay [19], 1.1 μmole/hr/mg protein in [20] and 2.1 μmole/hr/mg protein in assay [21].
